Assay results: patent US20260053767A1, “Hepatoprotective Compositions And Methods” (Jemyll, Ltd., priority 2022, published 2026)
“Also recorded” adds a separate entry of the source.

Columns and labels:
Assay type in all cases: cell-based
[1] = tested on: primary human hepatocytes; assay: In vitro palmitic acid stimulation, gene expression by quantitative real-time PCR
Description: Total RNA from human primary hepatocytes was extracted using the RNeasy Plus Mini Kit according to the indications provided by the company. A small aliquot of total RNA obtained (3 μl) was subjected to qualitative and quantitative control by using the microdrop. The qualitative and quantitative assessment of the individual samples was determined using a dedicated software. The total RNA was reverse transcribed into cDNA by using iScript RT. SYBR Green gene expression assays were performed according to the manufacturer's instruction using the iQTMSYBR Green Supermix and the CFX96 Touch Real-Time PCR Detection System. For this purpose, the following pairs of primer were used: solute carrier family 13 member 5 (SLC13A5) (forward 5′ […] 3′ (SEQ ID NO:1) and reverse 5′ […] 3′ (SEQ ID NO:2)), Diacylglycerol O-Acyltransferase 1 (DGAT1) (forward 5′ […] 3′ (SEQ ID NO:3) and reverse 5′ […] 3′ (SEQ ID NO:4)), Fatty Acid Synthase (FASN) (forward 5′ […] 3′ (SEQ ID NO:5) and reverse 5′ […] 3′ (SEQ ID NO:6)), carnitine palmitoyltransferase 1A (CPT1A) (forward 5′ […] 3′ (SEQ ID NO:7) and reverse 5′ […] 3′ (SEQ ID NO:8)) and Acetyl-CoA carboxylase (ACC1) (forward 5′ […] 3′ (SEQ ID NO:9) and reverse 5′ […] 3′ (SEQ ID NO:10)). mRNA expression levels were normalized to B2-microglobulin (forward 5′[…] 3′ (SEQ ID NO:11); and reverse 5′[…] 3′ (SEQ ID NO:12)) and quantification of relative gene expression, presented as percentage of the relevant baseline, was calculated using the 2-ACT (comparative threshold) method.
Isolation of human primary hepatocytes: Tissue obtained during percutaneous liver biopsy, was diced (<3 mm) and washed in HBSS to remove excess blood. Tissue was then transferred to a tube containing pre-warmed EGTA buffer (HBSS, 0.5 mM EGTA, 0.5% fatty acid free bovine serum albumin (BSA)) and agitated (100 rpm) in a water bath with shaking bed for 10 min, 37° C. After three washes, to remove the remaining blood and EGTA, the tissue was placed in pre-warmed digestion buffer (HBSS, 0.05% collagenase IV, 0.5% fatty acid free BSA, 10 mM CaC12) and agitated (100 rpm) in a water bath with shaking bed for 30 min, 37° C. The digested tissue was filtered through 100 μm cell strainer while the remaining tissue was again digested in fresh digestion buffer (20). Cell suspensions were pooled and centrifuged at 80 g for 5 min, 4° C. and the supernatant discarded. Cells were grown until confluent and used for citrate uptake analysis.
At the end of the stimulation de novo lipogenesis, fatty acid beta-oxidation and SLC13A5 gene expression were assessed by Quantitative Real-Time PCR Analysis.

[2] = tested on: liver cells (AML-12 cells); assay: DNA damage (p-H2AX protein levels) in liver cells; details: AML-12 liver cells, 6 hours; p=0.068
Text: (§1) To that end, the inventors used endothelial cells (EOMA cells) and liver cells (AML-12 cells) in vitro and quantified various markers in response to exposure of the cells to environmental challenge in the presence and absence of DDA at low concentrations. Unless indicated otherwise, the DDA concentration in the in vitro experiments was 5 mcg per microliter. More specifically, the inventors measured p-H2AX protein levels as a marker for DNA damage, PGC-1α protein levels as a marker for mitochondrial biogenesis, NAMPT enzyme levels as a marker for potential for NAD+ production, and total antioxidant capacity as a marker of cellular health. In addition, the inventors also measured global SIRT activity as a gauge of activity for all SIRT enzymes, and in particular SIRT1 enzyme levels as markers for autophagy and various beneficial processes associated with a caloric restricted diet, and SIRT3 levels as markers for mitochondrial function and longevity.
Finally, the inventors also investigated whether or not DDDA could have a protective effect against peroxide induced DNA damage, and exemplary results are shown in FIG. 11. […] N=5-6 plates per treatment.

[3] = tested on: PGC-1α; assay: PGC-1α protein levels in liver cells (marker for mitochondrial biogenesis); details: AML-12 liver cells
Text: as §1
The inventors also evaluated activity of DDA on energy metabolism, and particularly on mitochondrial health and/or mitochondrial biogenesis. The protein followed was PGC-1α, a known marker for mitochondrial biogenesis, and exemplary results are depicted in FIG. 7. […] Such finding is not entirely unexpected as PGC-1α is a transcriptional co-activator and as such tightly regulated.

[4] = tested on: human primary hepatocytes; assay: Nile red staining of lipid droplets; details: C12 1% with palmitic acid 0.4 mM, vs palmitic acid alone, listed as C12
Description: Nile Red: Cells were cultured for 24 hours in DMEM with 10% FBS. Prior stimulation, cells were incubated in serum free DMEM overnight. […] After the stimulation, cells were stained with Nile Red (100 ng/ml) for 45 minutes. Stained cells were used for immunofluorescence to quantify the deposition of lipid droplets. Nuclear staining was performed with DAPI and images of lipid droplets were taken using confocal microscope Nikon A1 RHD25 and NIS-Elements imaging software was used to analyze images.
C12 decrease de novo lipogenesis and an increase in fatty acid oxidation in vitro and in vivo: To test the hypothesis that C12 could affect de novo lipogenesis and fatty acid beta-oxidation, human primary hepatocytes were stimulated with palmitic acids (0.4 mM) in the presence or absence of C12 1% (v/w). […] Similar results were also observed in our in vivo experiments. […] Data from in vivo study 1 and 2 were pooled together.

[5] = primary human hepatocytes, C12 1% (v/w) with palmitic acid 0.4 mM, vs palmitic acid alone

Compound: O=C(O)CCCCCCCCCCC(=O)O [DDDA, dodecanedioic acid]
- gene expression of citrate transporter SLC13A5 ([1]; human hepatocytes, C12 1% (v/w) with palmitic acid 0.4 mM, vs palmitic acid alone, listed as C12): significant decrease; also recorded: reducing citrate transporter SLC13A5
- DNL in primary hepatocytes (figure legend) ([1]; palmitic acid 0.4 mM, C12 1%): reduces
- ACC1 (de novo lipogenesis enzyme) [1, 5]: significant reduction
- CPT1A (fatty acid beta-oxidation enzyme) [1, 5]: significant increase
- DGAT (de novo lipogenesis enzyme) [1, 5]: significant reduction
- FASN (de novo lipogenesis enzyme) [1, 5]: significant reduction
- peroxide induced DNA damage [2]: trend towards decreased DNA damage
- PGC-1α levels ([3]; 6 hours, p=0.001): increased PGC1α levels
- PGC-1α levels ([3]; 24 hours, pattern relative to 6 hours): paradoxically reversed
- deposition of lipid droplets (Nile red) [4]: decreased deposition of lipid droplets; also recorded: reduces lipid droplets accumulation
